Source: publication PMC11847541, “Liver fatty acid binding protein FABP1 transfers substrates to cytochrome P450 4A11 for catalysis” (The Journal of Biological Chemistry, 2025)
pKd: −log10 of the molar value. “Also recorded” adds a separate entry of the source. Like-named read-outs stand apart in the source and are kept apart here.

Experiments:
[1] = target: T1, P450 4A11 (Homo sapiens, UniProt Q02928); experiment: Equilibrium binding titrations of P450 4A11 with lipids (heme Soret spectral shift); conditions: P450 1 µM, DAUDA 1 nM to 10 µM
T1 sequence (Q02928 5-519): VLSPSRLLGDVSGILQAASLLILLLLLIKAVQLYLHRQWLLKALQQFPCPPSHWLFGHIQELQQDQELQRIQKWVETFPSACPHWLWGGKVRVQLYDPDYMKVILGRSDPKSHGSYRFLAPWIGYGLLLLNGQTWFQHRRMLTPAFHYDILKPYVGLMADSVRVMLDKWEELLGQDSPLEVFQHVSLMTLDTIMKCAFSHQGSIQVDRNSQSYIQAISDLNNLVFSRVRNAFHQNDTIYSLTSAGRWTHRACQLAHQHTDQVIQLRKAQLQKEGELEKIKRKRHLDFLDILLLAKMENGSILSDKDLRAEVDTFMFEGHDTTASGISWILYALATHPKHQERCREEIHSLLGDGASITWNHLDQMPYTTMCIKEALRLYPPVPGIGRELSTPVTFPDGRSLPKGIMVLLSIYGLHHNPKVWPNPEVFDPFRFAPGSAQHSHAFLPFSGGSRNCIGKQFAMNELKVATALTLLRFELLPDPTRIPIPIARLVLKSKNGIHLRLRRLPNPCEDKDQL
Protocol: Affinity of palmitate and 16-OH palmitate for P450 4A11 (1 μM) was assessed by monitoring the blue shift (from ∼420 nm to ∼390 nm) of the P450 heme Soret band as a substrate binds and displaces the sixth axial heme ligand (H2O) to yield pentacoordinated heme (“type I” shift) ([26]).
P450 4A11 (1 μM) was titrated with (A) palmitate and (B) 16-OH palmitate in a 1.0 cm pathlength cell. Difference plots were calculated from absorbance maxima (∼390 nm) and minima (∼420 nm), and the data were fit to a hyperbolic equation. The insets in each panel are the difference spectra between a cuvette that received the lipid substrate and a cuvette that received solvent alone. Each data point corresponds to one independent replicate.
Equilibrium binding titrations with P450 4A11 (1 μM) were performed in buffer (100 mM potassium phosphate [pH 7.4]) as described previously ([44], [56]). Briefly, a baseline was first acquired on an OLIS-Cary 14 spectrophotometer set to scan from 350 to 500 nm in 1 cm glass cuvettes. […] The cuvettes were mixed with a plumper after additions, and spectra were recorded. The spectra were exported into Microsoft Excel software, and the absorbance values at 418 nm were subtracted from those at 390 nm and the values were plotted as a function of lipid concentration.
Titration of P450 4A11 with DAUDA. The P450 concentration was 1 µM and the DAUDA concentration was varied using a geometric series from 1 nM to 10 µM. […] The increase in absorbance in the UV region is due to the strong chromophore in the DAUDA dansyl moiety (Fig. S8).

[2] = target: T2, FABP1 (Homo sapiens, UniProt P07148); experiment: Stopped-flow kinetics of DAUDA binding to FABP1
T2 construct: GST (N, cleaved yes); made in house; host or cells: Escherichia coli DH5α
T2 sequence (P07148 with tags, fused parts or gaps): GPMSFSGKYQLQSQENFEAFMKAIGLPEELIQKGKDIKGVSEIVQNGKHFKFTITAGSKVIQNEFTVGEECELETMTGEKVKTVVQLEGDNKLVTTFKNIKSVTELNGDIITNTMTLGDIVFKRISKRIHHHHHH
Protocol: In order to measure the rate of binding of DAUDA to FABP1, four concentrations (0.5–12.5 μM) of DAUDA were rapidly mixed with FABP1 (0.5 μM), and the gain of fluorescence (at 482 nm, Fig. 4A) was monitored over time (Fig. 6, A–D). […] A kon value (k4) of 9.0 ± 0.2 × 10^7 M^−1 s^−1 was calculated from the data (see the Experimental procedures section) (Fig. 6F).
Figure 6 Kinetics of binding of DAUDA to FABP1. FABP1 (0.5 μM) was mixed with (A) 0.5 μM, (B) 2.5 μM, (C) 5 μM, and (D) 12.5 μM DAUDA to yield the binding traces shown. DAUDA–FABP1 was excited (λex = 335 nm) as in Fig. 4 and total fluorescence signal >420 nm was collected. Data were fit to double exponential curves, and (E) the rate of the fast phase was extracted and plotted against DAUDA concentration. The data curve was fit to a Michaelis–Menten-type hyperbola. Each trace corresponds to ≥6 averaged replicate traces. In part A, the binding of DAUDA (0.5 μM) was proportional to the disappearance of protein (0.5 μM). The reciprocal concentration of FABP1 was plotted against time in part F, and the slope of the linear portion (linear regression in red) of that curve ([77]) gave an on-rate (kon) of 9.0 × 10^7 M^−1 s^−1. DAUDA, 11-dansylaminoundecanoic acid; FABP1, fatty acid binding protein.
Determination of the DAUDA on-rate (kon) to FABP1 was performed by mixing FABP1 (1 μM) and DAUDA ([…], see “Preparation of DAUDA stock solutions”) solutions (both in 100 mM potassium phosphate buffer, pH 7.4) in equal proportion (yielding a twofold dilution of all reaction components) using an OLIS stopped-flow spectrofluorometer with the parameters set as described earlier (see “P450 4A11 kon determinations”). […] At least six replicate measurements were recorded, the spectra were processed such that the fluorescence gain (from DAUDA binding) began at an (x, y) intercept of (0, 0), and the spectra were averaged and fit to double exponential plots in GraphPad Prism, and the rates for the fast (kon) and slow phases of binding were extracted. Then, as the first experiment was recorded by mixing equimolar (1 μM) concentrations of FABP1 and DAUDA and the binding was rapid, we approximated the binding as 2A → C (i.e., mathematically equivalent to A + B → C when the depletion of B is equal to the depletion of A ([77])). We plotted [FABP]^−1 as a function of time and fit the data to a linear equation (the slope of which is kon).

[3] = target: T2, FABP1; conditions: cited from earlier work
[4] = target: T2, FABP1; experiment: Fluorescence titration of DAUDA with FABP1 (reverse titration); format: binding; conditions: DAUDA 50 nM, FABP1 titrated, quadratic fit
Protocol: Binding of DAUDA to FABP1 was assessed in a “reverse titration” where FABP1 was titrated into a fixed concentration of DAUDA (50 nM), yielding a characteristic gain of fluorescence (Fig. 4A) at 482 nm. FABP1 was titrated into a solution of DAUDA (“reverse titration”) and not vice versa because of the intrinsic fluorescence of DAUDA (Fig. S11E), which overlaps with the spectrum of DAUDA–FABP1 (Fig. 4A). The intrinsic fluorescence of DAUDA was generally only problematic at concentrations much higher (>500 nM) than used in the assays (50 nM), though we sought to eliminate this additional variable by performing the reverse titration to estimate the Kd.
Figure 4 Fluorescence titration of DAUDA with FABP1 (“reverse” titration).A, fluorescence spectra (λex = 335 nm) of DAUDA (0.05 μM) collected with increasing concentrations of FABP1 (0–1.25 μM). The binding of DAUDA to FABP1 is accompanied by a gain of fluorescence, indicated with an arrow. B, titration curve calculated with data points (n = 1) at the observed fluorescence maximum (482 nm) and plotted versus concentration of FABP1. Data were fit to a quadratic equation. DAUDA, 11-dansylaminoundecanoic acid; FABP1, fatty acid binding protein. […]

[5] = Stability of DAUDA stock solutions; format: physicochemical
Protocol: DAUDA stock solutions (10 mM, prepared in C2H5OH) could be stored at −20 °C for up to 1 week with no significant decay of the UV spectrum and no formation of degradation peaks in the LC–MS chromatogram. Storage under these conditions for more than 1 week did compromise sample integrity (and the samples were discarded). We later observed that DAUDA stock solutions (10 mM) prepared in 50 mM K2CO3 and frozen at −80 °C could undergo several freeze–thaw cycles over the course of 2 months with no significant decay of the UV spectrum and no formation of degradation peaks in the LC–MS chromatogram.

## CN(C)c1cccc2c(S(=O)(=O)NCCCCCCCCCCC(=O)O)cccc12 [DAUDA, 11-dansylaminoundecanoic acid]
[1]
  binding to P450 4A11 (type I spectral shift): not detected; also recorded: did not bind
[2]; FABP1 0.5 μM, DAUDA 0.5 μM, read-out: kon of DAUDA to FABP1 (k4)
  kon: 9e+07 M⁻¹ s⁻¹
[2]; calculated from kon and Kd
  koff: 5 s⁻¹
[2]; faster
  koff from FABP1 relative to koff from P450 4A11: 25 fold
  kon of DAUDA to FABP1 relative to palmitate binding to P450 4A11: > 2000 fold
[3]; human ortholog, high-affinity site, read-out: Kd,1
  pKd: 6.70
[3]; human ortholog, low-affinity site, read-out: Kd,2
  pKd: < 5.48
[3]; literature estimate, high-affinity site, read-out: Kd
  pKd: < 6.34
[4]
  pKd: 7.25
[5]; 10 mM in 50 mM K2CO3, −80 °C, several freeze–thaw cycles
  storage time with no significant decay of UV spectrum and no degradation peaks: 2 months
[5]; 10 mM in C2H5OH, −20 °C
  storage time with no significant decay of UV spectrum and no degradation peaks: up to 1 week
